# Assay results from patent publication US9421263B2, “Antimicrobial compositions containing synergistic combinations of quaternary ammonium compounds and essential oils and/or constituents thereof” (THE TRUSTEES OF COLUMBIA UNIVERSITY IN THE CITY OF NEW YORK, priority 2003, dated 2016).
# Columns and labels:
# [1] = tested on: E. coli; assay: Rapid antimicrobial activity assay in presence of serum (E. coli); type: cell-based
# [2] = tested on: S. aureus; assay: Evaluation of rapid antimicrobial activity in presence of serum (S. aureus); type: cell-based; conditions: for synergy in combination with farnesol, in words: Example 3, Table 3, rapid serum-based assay; for log10 reduction, With zinc salts / cfu/ml, With zinc salts / log10 reduction, Without zinc salts / cfu/ml, Without zinc salts: Table 2; for log10 reduction, With zinc salts / cfu/ml, With zinc salts: Base #1 with zinc salts; for log10 reduction, With zinc salts / cfu/ml, With zinc salts / log10 reduction, Without zinc salts / cfu/ml, Without zinc salts / cfu/ml / log10 reduction / log10 reduction, S. aureus / cfu/ml, S. aureus / Log10 reduction: serum; for log10 reduction, With zinc salts / cfu/ml, With zinc salts / log10 reduction, Without zinc salts / cfu/ml, Without zinc salts / cfu/ml / log10 reduction / log10 reduction, S. aureus / cfu/ml, S. aureus / Log10 reduction / CFU/mL: 15 seconds; for cfu/ml, With zinc salts / cfu/ml: control gel 1.4 × 10^7; for log10 reduction, Without zinc salts / cfu/ml, Without zinc salts: Base #2 without zinc salts; for cfu/ml, Without zinc salts: control gel 4.1 × 10^7; for cfu/ml / log10 reduction: Table 3, groups in gel Base #2 (% w/w); for log10 reduction, S. aureus / cfu/ml, S. aureus: Base #2; for synergy of the combination, in words: Example 1, Table 1, Base #1; for Log10 reduction / CFU/mL: Table 1, BZK 0.12%, CHG 0.05%, TC 0.3%, ZP 0.5%, F/LO/LI/CI 0.3%; for Log10 reduction: Base #1 (zinc salts), versus Control (Base); for CFU/mL: agents in alcohol based zinc gel Base #1, bovine adult serum, control 3.4 × 10^7
# Procedure: Evaluation of Rapid Antimicrobial Activity in Presence of Serum.
# To determine the efficacy of the antimicrobial composition on the skin, which may be contaminated with blood or other proteinaceous fluids containing bacteria, the antimicrobial activity was evaluated in the presence of serum as follows. Briefly, 0.5 ml of 10^8 CFU of S. aureus/ml was added to 0.5 ml of bovine adult serum in a sterile culture tube and mixed. 0.5 ml of the test formulation was added to each tube and vortexed. After 15 seconds, it was further diluted 1:100 with drug inactivating media (LTSB) and 0.5 ml was plated on a TSA plate. The plates were incubated at 37° C. for 24 hours and the colony count per ml of culture was determined.
# [3] = cited from earlier work
# [4] = Table 4, Base #2, BZK 0.12% w/w, BZT 0.18% w/w, all other EO/IC 0.5% w/w, 15 seconds
# [5] = Table 4, Base #2, BZK 0.12% w/w, BZT 0.18% w/w, all other EO/IC 0.5% w/w, 15 seconds, control 2.6 × 10^7
# [6] = Table 5, Base #2, 15 seconds, gel base 2.6 × 10^7
# [7] = Table 4, BZK 0.12% w/w, BZT 0.18% w/w, all other EO/IC 0.5% w/w
# [8] = Table 4, BZK 0.12% w/w, BZT 0.18% w/w, all other EO/IC 0.5% w/w, control 1.4 × 10^7
# [9] = Table 6, Gel Base #1, ingredients % w/w, control base 3.4 × 10^7 cfu/ml
# [10] = Table 7, ingredients in gram millimoles per 100 g Gel, control base 6.4 × 10^7 cfu/ml
# [11] = Example 6, Table 7, molar proportions
Compound,"log10 reduction, E. coli ([1]; Table 5, Base #2, 15 seconds) [log10]","cfu/ml, E. coli [1, 6]","log10 reduction, S. aureus ([2]; Table 5) [log10]","cfu/ml, S. aureus ([2]; Table 5, gel base 1.4 × 10^7)","log10 reduction in colony count from the control [2, 9] [log10]","log10 reduction in colony count from the control [2, 10] [log10]","synergy of the combination, in words [2]",Log10 reduction [2] [log10],CFU/mL [2],further results
"CC(C)(C)CC(C)(C)c1ccc(OCCOCC[N+](C)(C)Cc2ccccc2)cc1 [BZT, benzethonium chloride]",1.8,4.3 × 10^5 cfu/ml,1.4,5.3 × 10^5 cfu/ml,1.6,1.9,–,–,–,"log10 reduction, E. coli [1, 4]: 1.8 log10; cfu/ml, E. coli [1, 5]: 4.3 × 10^5 cfu/ml; synergy in combination with farnesol, in words [2]: synergistic antimicrobial activity when used in combination with farnesol; log10 reduction, With zinc salts [2]: 1.6 log10; cfu/ml, With zinc salts [2]: 3.3 × 10^5 cfu/ml; log10 reduction, Without zinc salts [2]: 1.7 log10; cfu/ml, Without zinc salts [2]: 7.5 × 10^5 cfu/ml; cfu/ml ([2]; listed as BZT (0.06%)): 5.7 × 10^5 cfu/ml; cfu/ml ([2]; listed as BZT (0.12%)): 4.7 × 10^5 cfu/ml; cfu/ml ([2]; listed as BZT (0.18%)): 3.3 × 10^5 cfu/ml; log10 reduction ([2]; listed as BZT (0.06%)): 1.4 log10; log10 reduction ([2]; listed as BZT (0.12%)): 1.5 log10; log10 reduction ([2]; listed as BZT (0.18%)): 1.6 log10; log10 reduction, S. aureus [2, 7]: 1.4 log10; cfu/ml, S. aureus [2, 8]: 5.3 × 10^5 cfu/ml"
"N=C(NCCCCCCNC(=N)NC(=N)Nc1ccc(Cl)cc1)NC(=N)Nc1ccc(Cl)cc1.O=C(O)[C@H](O)[C@@H](O)[C@H](O)[C@H](O)CO.O=C(O)[C@H](O)[C@@H](O)[C@H](O)[C@H](O)CO [CHG, chlorhexidine gluconate]",1.7,4.8 × 10^5 cfu/ml,1.3,6.6 × 10^5 cfu/ml,1.7,1.9,No such synergism was observed when farnesol was combined,1.7,6.6 × 10^5 CFU/mL,–
"CC(C)=CCCC(C)=CC=O [CI, Citral]",–,–,–,–,–,–,synergistic antimicrobial effects when combined with BZK,1.3,1.5 × 10^6 CFU/mL,–
"CC(C)=CCCC(C)=CCCC(C)=CCO [F, Farnesol]",1.8,4.3 × 10^5 cfu/ml,1.5,4.5 × 10^5 cfu/ml,0.6,1.8,synergistic antimicrobial effects when combined with BZK,0.6,8.4 × 10^6 CFU/mL,"log10 reduction, E. coli [1, 4]: 1.8 log10; cfu/ml, E. coli [1, 5]: 4.3 × 10^5 cfu/ml; log10 reduction, With zinc salts [2]: 1.5 log10; cfu/ml, With zinc salts [2]: 4.5 × 10^5 cfu/ml; log10 reduction, Without zinc salts [2]: 1.7 log10; cfu/ml, Without zinc salts [2]: 8.9 × 10^5 cfu/ml; log10 reduction [2]: 1.5 log10; cfu/ml ([2]; listed as Farnesol (0.3%)): 4.6 × 10^5 cfu/ml; cfu/ml ([2]; listed as Farnesol (0.5%)): 4.5 × 10^5 cfu/ml; log10 reduction, S. aureus [2, 7]: 1.5 log10; cfu/ml, S. aureus [2, 8]: 4.5 × 10^5 cfu/ml"
"C=CC(C)(O)CCC=C(C)C (stereo not shown) [LI, Linalool]",–,–,–,–,–,–,synergistic antimicrobial effects when combined with BZK,1.3,1.5 × 10^6 CFU/mL,–
"Oc1cc(Cl)ccc1Oc1ccc(Cl)cc1Cl [TC, triclosan]",–,–,–,–,1.3,1.3,No such synergism was observed when farnesol was combined,1.3,1.5 × 10^6 CFU/mL,"whether farnesol shows synergy with or enhances the antimicrobial agent, in words ([2]; Example 6, Table 6, % w/w): does not show any synergy; whether farnesol shows synergy with or enhances the antimicrobial agent, in words [2, 11]: but not with triclosan"
Polyhexamethylenebiguanide hydrochloride [PHMB],1.6,6.0 × 10^5 cfu/ml,2.9,4.3 × 10^4 cfu/ml,2.9,2.1,–,–,–,"effect of added biguanide on the combination of BZT and farnesol, in words ([2]; Example 5, Table 5 (S. aureus and E. coli)): appears to enhance the activity of the combination of BZT and farnesol; whether farnesol shows synergy with or enhances the antimicrobial agent, in words ([2]; Example 6, Table 6, % w/w): enhances the activity; whether farnesol shows synergy with or enhances the antimicrobial agent, in words [2, 11]: appears to enhance the activity of farnesol"
benzalkonium chloride [BZK],–,–,–,–,1.8,–,significant synergistic activity in combination with EOs and ICs,1.8,5.4 × 10^5 CFU/mL,"log10 reduction, E. coli [1, 4]: 1.6 log10; cfu/ml, E. coli [1, 5]: 5.8 × 10^5 cfu/ml; synergy in combination with farnesol, in words [2]: synergistic antimicrobial activity when used in combination with farnesol; whether farnesol shows synergy with or enhances the antimicrobial agent, in words ([2]; Example 6, Table 6, % w/w): shows synergy; cfu/ml ([2]; listed as BZK (0.06%)): 1.8 × 10^6 cfu/ml; cfu/ml ([2]; listed as BZK (0.12%)): 5.4 × 10^5 cfu/ml; log10 reduction ([2]; listed as BZK (0.06%)): 0.9 log10; log10 reduction ([2]; listed as BZK (0.12%)): 1.4 log10; log10 reduction, S. aureus [2, 7]: 1.6 log10; cfu/ml, S. aureus [2, 8]: 3.3 × 10^5 cfu/ml"
zinc glycerate,–,–,–,–,–,–,–,–,–,"water solubility, in words [3]: moderately water soluble"
zinc picolinate,–,–,–,–,–,–,–,–,–,"water solubility, in words [3]: moderately water soluble"
zinc pyrithione [ZP],–,–,–,–,–,–,No such synergism was observed when farnesol was combined,1.4,1.4 × 10^6 CFU/mL,–
